For orientation: solubility means the dissolved amount per volume that the medium holds.

In brackets after ≈: the same amount, converted by molar mass.

The results in this text go back to patent publication US20070123533A1, “New process for preparing an optically pure 2-morpholinol derivative” (SMITHKLINE BEECHAM CORPORATION, priority 2003, published 2007).

Data set [1] in a line: Solubility of the racemate in the chromatography eluent. The class given is physicochemical. The note with it: organic solvent or mixture. From the text:
The selectivity obtained has a strong influence on process productivity. As illustrated in Example 3 below the addition of isopropanol to the acetonitrile mobile phase increased the selectivity over two-fold. The process productivity is almost proportional to [formula] but other parameters also have to be considered to select the best chromatographic conditions. The process is also influenced by the retention of the compounds, with tests showing the retention to be maximal at 2-3% isopropanol. However the solubility of the racemate is shown to increase with increasing isopropanol content allowing a more concentrated feed to be injected. […] Also from the standpoint of process operation robustness, since MCC involves continuous operation it is important to avoid any precipitation effects which could halt the system. Using a mobile phase containing isopropanol reduces the likelihood of precipitation occurring and is advantageous over a MCC system operating purely in 100% acetonitrile in which racemate feed and isolated enantiomers are less soluble. […]

The nature of data set [2]: Racemization of the pure enantiomer in heated solvents, optical purity followed over time. Format: physicochemical. Conditions: for Final OP (%): about 60-65° C. under reflux, starting OP >99.8%, about 20 g/L. As for the experimental part: Pure (+)-(2S,3S)-2-(3-chlorophenyl)-3,5,5-trimethyl-2-morpholinol was tested with various solvents in order to optimize the racemization. Specifically, about 2 g of pure enantiomer ((+)(2S,3S)-2-(3-chlorophenyl)-3,5,5-trimethyl-2-morpholinol) were dissolved into 100 ml (total concentration of about 20 g/L) of solvent (see various solvents below) and heated up to about 60-65° C. under stirring (under reflux). The solution was sampled periodically in order to follow the kinetics of racemization.
Table 11 illustrates the Optical Purity of the racemization of the enantiomer in various solvents or solvent mixtures: […]

Take `C[C@H]1NC(C)(C)CO[C@]1(O)c1cccc(Cl)c1` (racemic) [racemate, (+/−)-(2R*, 3R*)-2-(3-chlorophenyl)-3,5,5-trimethyl-2-morpholinol]: the solubility in data set [1] (in acetonitrile/isopropanol 95/5 mixture) was 30 mg/mL (≈ 117 mM); in data set [1] (in pure acetonitrile) it was 22.5 mg/mL (≈ 88 mM).

For `C[C@@H]1NC(C)(C)CO[C@@]1(O)c1cccc(Cl)c1` [(+)-(2S,3S)-2-(3-chlorophenyl)-3,5,5-trimethyl-2-morpholinol], the “Final OP (%)” value in data set [2] (Acetonitrile/IPA (95/5), 20 hours) is 92.8%; in data set [2] (Isopropanol, 20 hours) it was 84.8%; in data set [2] (Methanol, 2 hours), 95.3%; in data set [2] (Methanol/HCl, 2 hours), 97.4%; in data set [2] (Water/HCl, 2 hours), >99.8%. The “racemization (in words)” value in data set [2] (acidic aqueous solvent) is reported as “No racemization is observed”. For the same compound, the racemization conversion in data set [2] (methanol, after 2 hours) is on record as 10%; in data set [2] (pure isopropanol, after 20 hours), 30%.
